Laboratory results from patent US9476030B2, “Self-renewing endodermal progenitor lines generated from human pluripotent stem cells and methods of use thereof” (The Children's Hospital of Philadelphia, priority 2011, dated 2016).

Columns and labels:
Format in all cases: cell-based, human
H9-EP cells [1] = test: EP cell maintenance: cell number / cell growth under various media conditions; conditions: for proliferation of EP cells (total cell number after 7-day expansion): FIG. 4B
Procedure: (§1) FIG. 4. Cytokine Requirements and Critical Signaling Pathways for EP Cell Maintenance and Differentiation. […] In each condition, one of the four cytokines was omitted or inhibitors of signaling pathways were added. The H9-EP cell line was grown for 1 week in optimal EP Basic Media (BASIC) or in the absence of BMP4, or bFGF or VEGF. (A) Flow cytometric analyses of SOX17 versus PDX1, or SOX17 versus FOXA1 are shown. […] (C-D) To evaluate the role of TGF signaling in EP cell maintenance and differentiation, the small molecule inhibitor SB431542 was added to EP media. (C) H9-EP cells were cultured in normal EP media (BASIC) or in EP media supplemented with SB431542 (6 M) either in the presence (+SB) or the absence of BMP4 (−BMP+SB). Cells were harvested at day 6. Flow cytometric analyses of SOX17 versus FOXA1 are shown. (D) H9-EP cells were cultured in the presence (SB, red circles) or the absence (BASIC, blue squares) of SB431542 for 3 passages and cell growth analyzed by cell counts at each passage. […] Cells were harvested at day 14 of differentiation, and were compared to those derived from SB-untreated group (BASIC). Flow cytometric analyses of C-peptide versus Glucagon are shown.
Cells were fed every two days, and were split at 1×10^6/58 cm^2 every 6 days by trypsinization. The small molecule inhibitors PD0325901 (Sebolt-Leopold et al., 2004; Ying et al., 2008), PD173074 (Mohammadi et al., 1998) and SB431542 (Laping et al, 2002; Inman et al., 2002) were purchased from Cayman Chemicals and Stemgent, respectively.

H9-EP cells [2] = test: Flow cytometric analysis of SOX17 / PDX1 / FOXA1 in EP cells under various media conditions; set-up: SOX17 expression in EP cells: dose or concentration left out as unconfirmed
Procedure: as §1
Single cell suspensions were obtained by dissociating day 5 transient endoderm, EP cell cultures, or EP cell differentiation cultures with 0.25% trypsin at 37° C. for 3-5 minutes. Cell surface antigen staining was performed in IMDM with 10% fetal calf serum. For intracellular staining, cells were fixed with 1.6% paraformaldehyde (Electron Microscopy Sciences) at 37 C for 20 minutes, and then washed twice with PBS+1% BSA. The fixed cells were permeabilized and stained in 1× Permeabilization Wash Buffer (BioLegend, 421002). The stained cells were analyzed with the BD FACS Canto II Flow Cytometer (BD Biosciences), and the data was analyzed using the Flowjo software (TreeStar). The sources and concentrations of primary, secondary antibodies and isotype controls are listed below.

H9-EP and iPS2-EP cells = test: Pancreatic differentiation of EP cells after culture with SB431542; conditions: EP cells cultured with SB431542 for 5 days, then differentiated, day 14, FIG. 4E
Procedure: FIG. 4. Cytokine Requirements and Critical Signaling Pathways for EP Cell Maintenance and Differentiation. […] In each condition, one of the four cytokines was omitted or inhibitors of signaling pathways were added. The H9-EP cell line was grown for 1 week in optimal EP Basic Media (BASIC) or in the absence of BMP4, or bFGF or VEGF. (A) Flow cytometric analyses of SOX17 versus PDX1, or SOX17 versus FOXA1 are shown. […] (C-D) To evaluate the role of TGF signaling in EP cell maintenance and differentiation, the small molecule inhibitor SB431542 was added to EP media. […] Cells were harvested at day 6. Flow cytometric analyses of SOX17 versus FOXA1 are shown. […] Cells were harvested at day 14 of differentiation, and were compared to those derived from SB-untreated group (BASIC). Flow cytometric analyses of C-peptide versus Glucagon are shown. […] (2011), was modified by omitting the first step, and by adding-secretase inhibitor X (Calbiochem, 2 M) from day 8 to day 12 of differentiation, as well as by adding human insulin (Sigma, 800 pM) and nicotinamide (Sigma, 10 mM) from day 10 and onwards. […] Mouse Wnt3a was supplemented to the step 2 media at 3 ng/ml. From day 10 and onwards, the medium was alternated every day between high dextrose (60 mM) and low dextrose (20 mM). […] Insulin secretion was calculated based on the total cell number and the percentage of c-peptide+ cells of each experiment. […]

[3] = inhibitor of FGF/Ras/MEK pathway added to EP media
[4] = withdrawal of the cytokine, within one week, FIG. 4A
[5] = withdrawal of the cytokine from EP basic media

CCN(CC)CCCCNc1ncc2cc(-c3cc(OC)cc(OC)c3)c(NC(=O)NC(C)(C)C)nc2n1 [PD173074]
proliferation of EP cells (total cell number after 7-day expansion) (H9-EP cells [1]; [3]): reduced proliferation dramatically

O=C(NOC[C@H](O)CO)c1ccc(F)c(F)c1Nc1ccc(I)cc1F [PD0325901]
proliferation of EP cells (total cell number after 7-day expansion) (H9-EP cells [1]; [3]): reduced proliferation dramatically

NC(=O)c1ccc(-c2nc(-c3ccc4c(c3)OCO4)c(-c3ccccn3)[nH]2)cc1 [SB431542]
SOX17 expression in EP cells (H9-EP cells [2]; EP media supplemented with SB431542, harvested at day 6, FIG. 4C): completely abolished SOX17 expression
differentiation of EP cells into pancreatic β-cells (H9-EP and iPS2-EP cells): inhibited differentiation into pancreatic β-cells
proliferation of EP cells (relative cell growth over 3 passages) (H9-EP cells [1]; SB431542 added to EP media, FIG. 4D): drastically suppressed proliferation

BMP4: human cytokine in EP basic medium (50 ng/ml)
PDX1 expression in EP cells (H9-EP cells [2]; [4]): up-regulation of PDX1
SOX17 expression in EP cells (H9-EP cells [2]; [4]): almost complete loss of SOX17 expression

EGF: human cytokine in EP basic medium (10 ng/ml) (NSDSECPLSHDGYCLHDGVCMYIEALDKYACNCVVGYIGERCQYRDLKWWELR; UniProt P01133 971-1023, looked up)
proliferation of EP cells (total cell number after 7-day expansion) (H9-EP cells [1]; [5]): significant decrease in proliferation

VEGF
proliferation of EP cells (total cell number after 7-day expansion) (H9-EP cells [1]; [5]): significant decrease in proliferation

bFGF: human cytokine in EP basic medium (10 ng/ml)
proliferation of EP cells (total cell number after 7-day expansion) (H9-EP cells [1]; [5]): reduced proliferation dramatically
